The values that follow come from patent publication US8648066B2 (Exelixis, Inc., priority 2009, dated 2014).

For this experiment, the target named is mTOR/GbL/Raptor (mTORC1) (Homo sapiens, UniProt P42345). Description: mTOR/GbL/Raptor (mTORC1) ELISA assay. Type of experiment: biochemical. The following applies: phosphorylation of 4E-BP1; 0.2 nM mTORC1, 10 μM ATP; read-out: IC50 in this assay (mTORC1 ELISA). The method, boiled down:
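ELISA read-out: phospho-4E-BP1 captured on Ni-chelate plates and detected with anti-phospho antibody plus HRP-anti-IgG luminescence. The kinase step ran 120 min at ambient temperature with 0.2 nM human mTORC1, 10 µM ATP, 50 nM His-4E-BP1, 10 mM MnCl2, pH 7.2 HEPES.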
Take `COc1ccc(-c2ccc3c(c2)CN(c2nc(CN(C)C)nc4c2CC(C)(C)CC4)CCO3)cc1Cl` [Example 324, 1-(4-{7-[3-chloro-4-(methyloxy)phenyl]-2,3-dihydro-1,4-benzoxazepin-4(5H)-yl}-6,6-dimethyl-5,6,7,8-tetrahydroquinazolin-2-yl)-N,N-dimethylmethanamine]: the IC50 was 250 to 1000 nM.
In the case of `CN(C)Cc1nc2c(c(N3CCOc4ccc(-c5ccc(-c6ncc[nH]6)cc5)cc4C3)n1)CC(C)(C)CC2` [Example 325] it was ≤ 10 nM; in that of `COCCOc1ccc(-c2ccc3c(c2)CN(c2nc(CN(C)C)nc4c2CC(C)(C)CC4)CCO3)cc1OC` [Example 327, 1-(6,6-dimethyl-4-{7-[3-(methyloxy)-4-{[2-(methyloxy)ethyl]oxy}phenyl]-2,3-dihydro-1,4-benzoxazepin-4(5H)-yl}-5,6,7,8-tetrahydroquinazolin-2-yl)-N,N-dimethylmethanamine], 250 to 1000 nM.
In the case of `COc1ccc(-c2ccc3c(c2)CN(c2nc(CN(C)C)nc4c2CC(C)(C)CC4)CCO3)cn1` [Example 330, 1-(6,6-dimethyl-4-{7-[6-(methyloxy)pyridin-3-yl]-2,3-dihydro-1,4-benzoxazepin-4(5H)-yl}-5,6,7,8-tetrahydroquinazolin-2-yl)-N,N-dimethylmethanamine] it was 250 to 1000 nM; in that of `Cc1nc(CN(C)C)nc(N2CCOc3ccc(-c4ccc5[nH]c(C(F)F)nc5c4)cc3C2)c1C(C)C` [Example 331, 1-[4-{7-[2-(difluoromethyl)-1H-benzimidazol-5-yl]-2,3-dihydro-1,4-benzoxazepin-4(5H)-yl}-6-methyl-5-(1-methylethyl)pyrimidin-2-yl]-N,N-dimethylmethanamine], 50 to 250 nM; in that of `Cc1nc(CN(C)C)nc(N2CCOc3ccc(-c4ccc5[nH]c(CF)nc5c4)cc3C2)c1C(C)C` [Example 332, 1-[4-{7-[2-(fluoromethyl)-1H-benzimidazol-5-yl]-2,3-dihydro-1,4-benzoxazepin-4(5H)-yl}-6-methyl-5-(1-methylethyl)pyrimidin-2-yl]-N,N-dimethylmethanamine], 50 to 250 nM.
Then `COc1ccc2c(N3CCOc4ccc(-c5ccc(OC)c(OC)c5)cc4C3)nc(CN(C)C)nc2c1` [Example 333, 1-[4-{7-[3,4-bis(methyloxy)phenyl]-2,3-dihydro-1,4-benzoxazepin-4(5H)-yl}-7-(methyloxy)quinazolin-2-yl]-N,N-dimethylmethanamine], with ≥ 2000 nM; and `CC[C@H]1CCc2c(nc(CN(C)C)nc2N2CCOc3ccc(-c4cnc5nc(C)[nH]c5c4)cc3C2)C1` [Example 334, 1-{(7S)-7-ethyl-4-[7-(2-methyl-1H-imidazo[4,5-b]pyridin-6-yl)-2,3-dihydro-1,4-benzoxazepin-4(5H)-yl]-5,6,7,8-tetrahydroquinazolin-2-yl}-N,N-dimethylmethanamine], with 10 to 50 nM.
In the case of `Cc1nc(CN(C)C)nc(N2CCOc3ccc(-c4ccc5scnc5c4)cc3C2)c1Cc1ccc(F)cc1` [Example 336, 1-{4-[7-(1,3-benzothiazol-5-yl)-2,3-dihydro-1,4-benzoxazepin-4(5H)-yl]-5-[(4-fluorophenyl)methyl]-6-methylpyrimidin-2-yl}-N,N-dimethylmethanamine], the IC50 was in the range of 50 to 250 nM.
Then `CN(C)Cc1nc2c(c(N3CCOc4ccc(-c5ccc6scnc6c5)cc4C3)n1)CC(C)(C)CC2` [Example 337, 1-{4-[7-(1,3-benzothiazol-5-yl)-2,3-dihydro-1,4-benzoxazepin-4(5H)-yl]-6,6-dimethyl-5,6,7,8-tetrahydroquinazolin-2-yl}-N,N-dimethylmethanamine], with 250 to 1000 nM; and `COC1Cc2nc(CN(C)C)nc(N3CCOc4ccc(-c5ccc6scnc6c5)cc4C3)c2CC1(C)C` (centres unmarked) [Example 338, 1-{4-[7-(1,3-benzothiazol-5-yl)-2,3-dihydro-1,4-benzoxazepin-4(5H)-yl]-6,6-dimethyl-7-(methyloxy)-5,6,7,8-tetrahydroquinazolin-2-yl}-N,N-dimethylmethanamine], with ≥ 2000 nM; and `CN(C)Cc1nc2c(c(N3CCOc4ccc(-c5cnc6nc(C7CC7)[nH]c6c5)cc4C3)n1)CC(C)(C)CC2` [Example 339, 1-{4-[7-(2-cyclopropyl-1H-imidazo[4,5-b]pyridin-6-yl)-2,3-dihydro-1,4-benzoxazepin-4(5H)-yl]-6,6-dimethyl-5,6,7,8-tetrahydroquinazolin-2-yl}-N,N-dimethylmethanamine], with ≤ 10 nM.
In the case of `Cc1nc2ncc(-c3ccc4c(c3)CN(c3ncnc5c3CCC(C(C)O)C5)CCO4)cc2[nH]1` (centres unmarked) [Example 340, 1-{4-[7-(2-methyl-1H-imidazo[4,5-b]pyridin-6-yl)-2,3-dihydro-1,4-benzoxazepin-4(5H)-yl]-5,6,7,8-tetrahydroquinazolin-7-yl}ethanol] it was 50 to 250 nM; in that of `Cc1nc2c(F)c(-c3ccc4c(c3)CN(c3nc(CN(C)C)nc5c3CC(C)(C)CC5)CCO4)ccc2[nH]1` [Example 341, 1-{4-[7-(4-fluoro-2-methyl-1H-benzimidazol-5-yl)-2,3-dihydro-1,4-benzoxazepin-4(5H)-yl]-6,6-dimethyl-5,6,7,8-tetrahydroquinazolin-2-yl}-N,N-dimethylmethanamine], 250 to 1000 nM.
In the case of `Cc1nc2cc(-c3ccc4c(c3)CN(c3nc(CN(C)C)nc5c3CC(C)(C)CC5)CCO4)c(F)cc2[nH]1` [Example 342, 1-{4-[7-(6-fluoro-2-methyl-1H-benzimidazol-5-yl)-2,3-dihydro-1,4-benzoxazepin-4(5H)-yl]-6,6-dimethyl-5,6,7,8-tetrahydroquinazolin-2-yl}-N,N-dimethylmethanamine] it was 250 to 1000 nM.
In the case of `CCc1nc(CN(C)C)nc(N2CCOc3ccc(-c4ccc5[nH]c(C)nc5c4)cc3C2)c1C` [Example 343, 1-{4-ethyl-5-methyl-6-[7-(2-methyl-1H-benzimidazol-5-yl)-2,3-dihydro-1,4-benzoxazepin-4(5H)-yl]pyrimidin-2-yl}-N,N-dimethylmethanamine], the IC50 lay in the range of 1000 to 2000 nM.
In the case of `CCc1nc(CN(C)C)nc(N2CCOc3ccc(-c4cnc5[nH]c(C)nc5c4)cc3C2)c1C` [Example 344, 1-{4-ethyl-5-methyl-6-[7-(2-methyl-3H-imidazo[4,5-b]pyridin-6-yl)-2,3-dihydro-1,4-benzoazepin-4(5H)-yl]pyrimnidin-2-yl}-N,N-dimethylmethanamine] it was 250 to 1000 nM; in that of `Cc1nc2ccc(-c3ccc4c(c3)CN(c3nc(CN(C)C)nc(C)c3CC3CC3)CCO4)cc2[nH]1` [Example 345, 1-{5-(cyclopropylmethyl)-4-methyl-6-[7-(2-methyl-1H-benzimidazo-6-yl)-2,3-dihydro-1,4-benzoxazepin-4(5H)-yl]pyrimidin-2-yl}-N,N-dimethylmethanamine], 250 to 1000 nM.
Then `Cc1nc2ncc(-c3ccc4c(c3)CN(c3nc(CN(C)C)nc(C)c3CC3CC3)CCO4)cc2[nH]1` [Example 346, 1-{5-(cyclopropylmethyl)-4-methyl-6-[7-(2-methyl-1H-imidazo[4,5-b]pyridin-6-yl)-2,3-dihydro-1,4-benzoxazepin-4(5H)-yl]pyrimidin-2-yl}-N,N-dimethylmethanamine], with 50 to 250 nM; and `Cc1nc2cc(-c3ccc4c(c3)CN(c3nc(CN(C)C)nc(C)c3Cc3ccc(F)cc3)CCO4)ccc2[nH]1` [Example 347, 1-{5-[(4-fluorophenyl)methyl]-4-methyl-6-[7-(2-methyl-1H-benzimidazol-5-yl)-2,3-dihydro-1,4-benzoxazepin-4(5H)-yl]pyrimidin-2-yl}-N,N-dimethylmethanamine], with ≤ 10 nM; and `Cc1nc2cc(-c3ccc4c(c3)CN(c3nc(CN(C)C)nc(C)c3Cc3ccc(F)cc3)CCO4)cnc2[nH]1` [Example 348, 1-{5-[(4-fluorophenyl)methyl]-4-methyl-6-[7-(2-methyl-3H-imidazo[4,5-b]pyridin-6-yl)-2,3-dihydro-1,4-benzoxazepin-4(5H)-yl]pyrimidin-2-yl}-N,N-dimethylmethanamine], with ≤ 10 nM.
Then `CCc1c(C)nc(CN(C)C)nc1N1CCOc2ccc(-c3ccc4[nH]c(C)nc4c3)cc2C1` [Example 349, 1-{5-ethyl-4-methyl-6-[7-(2-methyl-1H-benzimidazol-5-yl)-2,3-dihydro-1,4-benzoxazepin-4(5H)-yl]pyrimidin-2-yl}-N,N-dimethylmethanamine], with 250 to 1000 nM.
In the case of `CCc1c(C)nc(CN(C)C)nc1N1CCOc2ccc(-c3cnc4[nH]c(C)nc4c3)cc2C1` [Example 350, 1-{5-ethyl-4-methyl-6-[7-(2-methyl-3H-imidazo[4,5-b]pyridin-6-yl)-2,3-dihydro-1,4-benzoxazepin-4(5H)-yl]pyrimidin}-N,N-dimethylmethanamine], the IC50 fell in the range of 50 to 250 nM.
In the case of `Cc1nc2ccc(-c3ccc4c(c3)CN(c3nc(CN(C)C)nc5c3CC(C)(C)CC5)CCO4)cc2[nH]1` [Example 351, 1-{6,6-dimethyl-4-[7-(2-methyl-1H-benzimidazol-6-yl)-2,3-dihydro-1,4-benzoxazepin-4(5H)-yl]-5,6,7,8-tetrahydroquinazolin-2-yl}-N,N-dimethylmethanamine] it was 10 to 50 nM; in that of `Cc1nc2ncc(-c3ccc4c(c3)CN(c3nc(CN)nc5c3CC(C)(C)CC5)CCO4)cc2[nH]1` [Example 352, 1-{6,6-dimethyl-4-[7-(2-methyl-1H-imidazo[4,5-b]pyridin-6-yl)-2,3-dihydro-1,4-benzoxazepin-4(5H)-yl]-5,6,7,8-tetrahydroquinazolin-2-yl}methanamine], ≤ 10 nM; in that of `Cc1nc2ncc(-c3ccc4c(c3)CN(c3nc(CN(C)C)nc5c3CC(C)(C)CC5)CCO4)cc2[nH]1` [Example 353, 1-{6,6-dimethyl-4-[7-(2-methyl-1H-imidazo[4,5-b]pyridin-6-yl)-2,3-dihydro-1,4-benzoxazepin-4(5H)-yl]-5,6,7,8-tetrahydroquinazolin-2-yl}-N,N-dimethylmethanamine], ≤ 10 nM.
